According to publication PMC8309005, “Novel Non-Congeneric Derivatives of the Choline Kinase Alpha Inhibitor ICL-CCIC-0019” (Pharmaceutics, 2021):
Read-outs that look alike come from different tables or passages of the source.

Experiments:
[1] = tested on: C4-2B prostate cancer cells; assay: Cellular uptake and metabolism study in C4-2B with or without serum (HPLC); conditions: 50 μM, 4 h; for mean cellular uptake: mean of ICL-CCIC-0019 and CK146; for detection in cell lysates by HPLC (in words): both FCS groups
Protocol: Cell lysate sample preparation: C4-2B prostate cancer cells were seeded into cell culture dishes (150 × 25 mm) at a density of 7 × 10^6 per dish. The cells were allowed to settle and grow for another 48 h. The cells were treated with ICL-CCIC-0019, CK146, CK147 and CK148 (50 μM of 7 mL RPMI medium with or without 10% FCS) for 4 h in the incubator. After 4-h incubation, the aliquots of medium were collected (see the medium sample preparation section). Cells were scraped, washed with ice-cold PBS three times and collected by centrifugation (4 °C, 4000× g). The cell pellets were resuspended in 500 μL of chilled acetonitrile:PBS (50:50, v/v) for cell disruption and homogenization. The cell disruption was performed by a Precellys® 24 homogenizer (Bertin Technologies, Montigny-le-Bretonneux, France) at 4 °C. After acetonitrile evaporation at room temperature, 50 μL of cell lysis was taken for protein analysis. Another 100 μL of the supernatant obtained after centrifuge (4 °C, 15,000× g) was resuspended in 100 μL formic acid:water (0.2%, v/v). Next, 100 μL of the filtered solution was analyzed by HPLC system described in Supplementary HPLC method D. Three injections were performed for each sample. Intracellular drug was normalized to cellular protein of each plate using BCA assay. Medium sample preparation for HPLC analysis: 250-μL aliquots of medium (with or without 10% FCS) were transferred into 1.5-mL tube containing 250 μL acetonitrile. After a brief vortex, the tube was placed at 4 °C for 30 min for protein precipitation. One hundred microliters of the resulting supernatant from centrifuge (4 °C, 15,000× g) were resuspended in 100 μL formic acid: water (0.2%, v/v). One hundred microliters of the filtered sample were analyzed by HPLC system described in Supplementary HPLC method D. Three injections were performed for each sample.

HCT116 xenografts = conditions: cited from earlier work
[2] = tested on: MCF-10A and ST-T1B (2 normal cell lines); conditions: read-out: GI50 range of 2 normal cell lines (MCF-10A and ST-T1B); cited from earlier work
8 cancer cell lines = tested on: 8 cancer cell lines; design: method as in PMID 27206796; conditions: cited from earlier work
A549 = conditions: cited from earlier work
[3] = tested on: Δ49N CHKA2 (recombinant CHKA2); conditions: read-out: IC50 Δ49N CHKA2; cited from earlier work
HCT-116 = conditions: cited from earlier work

Row | mean cellular uptake ([1]; FCS negative group) [% μg^−1 protein] | mean cellular uptake ([1]; FCS positive group (10% FCS)) [% μg^−1 protein] | detection in cell lysates by HPLC (in words) [1] | Structure (SMILES) | in vivo anti-tumor activity (in words) (HCT116 xenografts) | body weight effect (in words) (HCT116 xenografts; in vivo) | GI50 [2] [nM] | GI50 (8 cancer cell lines; read-out: GI50 range of 8 cancer cell lines) [nM] | GI50 (8 cancer cell lines; read-out: mean GI50 of 8 cancer cell lines) [nM] | GI50 (A549) [nM] | IC50 [3] [nM] | GI50 (HCT-116) [nM]
1 | 34.1 ± 0.6 | 24.9 ± 1.4 | detected | CN(C)c1cc[n+](CCCCCCCCCCCCCC[n+]2ccc(N3CCNCC3)cc2)cc1 [CK146] |  |  |  |  |  |  |  | 
2 | 34.1 ± 0.6 | 24.9 ± 1.4 | detected | CN(C)c1cc[n+](CCCCCCCCCCCC[n+]2ccc(N(C)C)cc2)cc1 [ICL-CCIC-0019] | potent in vivo anti-tumor activity | slight reduction in body weight | 30000 to 120000 | 380 to 2700 | 1090 | 380 | 270 ± 60 | 640
